IC50 data for 13 molecules are collected here from US10221186B2, “Spirocyclic heterocyclic compounds useful as HIV integrase inhibitors” (priority 2014, dated 2019).

The subject of the experiment is HIV-1 (NL4-3 strain). Briefly: Assay for inhibition of HIV replication (VIKING) in infected MT4-GFP cells. The format is cell-based. The note with it: infected cells at 48 h / 24 h. Here is the method: MT4-GFP cells (250,000 cells/ml) were bulk-infected with HIV-1 (NL4-3 strain) at low multiplicity of infection (MOI) in RPMI+10% FBS for 24 hours. […] Test compounds were serial-diluted in DMSO on ECHO. The infected MT4-GFP cells were added to a 384-well poly-D-lysine coated black plate with clear bottom in which the diluted test compounds were placed. The cells were seeded at 8,000 cells per well and the final DMSO concentration was 0.4%. The infected cells (Green GFP cells) were quantified at both 24 and 48 hours post incubation using Acumen eX3. Viral reproductive ratio (R0) was determined using the number of infected cells at 48 hours divided by the number of infected cells at 24 hours. Percent viral growth inhibition was calculated by [1−(R−Rtripledrug)/(RDMSO−Rtripledrug)]*100.

Where [1] appears, read: Human immunodeficiency virus 1, NL43, MT4-GFP cells infected with HIV-1 NL4-3, 100% NHS (normal human serum), read-out: VIKING IP50 (nM) with 100% NHS.
The mark [2] stands for this setting: MT4-GFP cells infected with HIV-1 NL4-3, 0% NHS (normal human serum), read-out: VIKING IP50 (nM) with 0% NHS.
The mark [3] stands for this setting: Human immunodeficiency virus 1, NL43, MT4-GFP cells infected with HIV-1 NL4-3, 0% NHS (normal human serum), read-out: VIKING IP50 (nM) with 0% NHS.
Setting [4] is: MT4-GFP cells infected with HIV-1 NL4-3, 100% NHS (normal human serum), read-out: VIKING IP50 (nM) with 100% NHS.

Structures are written as SMILES. Read-outs that look alike come from different tables or passages of the source.

In the case of `CC(=O)N1CCC2(CN(C)C(=O)c3c(O)c(=O)c(C(=O)NCc4ccc(F)cc4F)cn32)C1` (single isomer, unassigned) [Compound 45], the IC50 runs as follows: under setting [1], 297 nM; under setting [2], 69 nM.

As to `CCN1C(=O)c2c(O)c(=O)c(C(=O)NCc3ccc(F)cc3F)cn2C2(COC2)C1OC` (single isomer, unassigned) [Compound 33], the IC50 is 3 nM under setting [3] and 210 nM under setting [4].

In the case of `O=C(NCc1ccc(F)cc1F)c1cn2c(c(O)c1=O)C(=O)N(CCP(=O)(O)O)CC21CCOC1` (centres unmarked) [Compound 32], the IC50 worked out at 293 nM under setting [3] and 873 nM under setting [1].

For `COCCN1CC2(CCOCC2)n2cc(C(=O)NCc3ccc(F)cc3F)c(=O)c(O)c2C1=O` [Compound 6], the IC50 is, setting by setting: under setting [3], 6 nM; under setting [1], 646 nM.

In the case of `CCOCCN1CC2(CCOC2)n2cc(C(=O)NCc3ccc(F)cc3F)c(=O)c(O)c2C1=O` (centres unmarked) [Compound 23], the IC50 is, setting by setting: under setting [2], 1 nM; under setting [4], 27 nM.

Consider `CCN1C(=O)c2c(O)c(=O)c(C(=O)NCc3ccc(F)cc3F)cn2C2(CCOC2)C1OC` (single isomer, unassigned) [Compound 36], for which the IC50 reads like this: under setting [2], 3 nM; under setting [4], 114 nM.

In the case of `CN1CC2(CCCOC2)n2cc(C(=O)NCc3ccc(F)cc3F)c(=O)c(O)c2C1=O` (centres unmarked) [Compound 11], the IC50 by setting is: under setting [2], 3 nM; under setting [4], 442 nM.

Take `CC(=O)N1CCC2(CN(C)C(=O)c3c(O)c(=O)c(C(=O)NCc4ccc(F)cc4F)cn32)C1` (single isomer, unassigned) [Compound 46]: the IC50 was determined as 19 nM under setting [2] and 259 nM under setting [4].

For the molecule `COCCN1CC2(CCCOC2)n2cc(C(=O)NCc3ccc(F)cc3F)c(=O)c(O)c2C1=O` (single isomer, unassigned) [Compound 9], the IC50 is, setting by setting: under setting [2], 2 nM; under setting [4], 814 nM.

Regarding `CN1CC2(CCNC2)n2cc(C(=O)NCc3ccc(F)cc3F)c(=O)c(O)c2C1=O` (single isomer, unassigned) [Compound 52], the IC50 runs as follows: under setting [2], 18 nM; under setting [4], 210 nM.

With `CCN1C(=O)c2c(O)c(=O)c(C(=O)NCc3ccc(F)cc3F)cn2C2(COC2)C1OC` (single isomer, unassigned) [Compound 34], the IC50 runs as follows: under setting [2], 5 nM; under setting [4], 4920 nM.

Take `COCCCN1CC2(CCOC2)n2cc(C(=O)NCc3ccc(F)cc3F)c(=O)c(O)c2C1=O` (single isomer, unassigned) [Compound 13]: the IC50 by setting is: under setting [2], 2 nM; under setting [4], 36 nM.

Turning to `COCCN1CC2(COC2)n2cc(C(=O)NCc3ccc(F)cc3F)c(=O)c(O)c2C1=O` [Compound 3], the IC50 reads like this: under setting [3], 3 nM; under setting [1], 292 nM.
